Like-named read-outs stand apart in the source and are kept apart here.
Experiments:
[1] = test system: A2780 ovarian cancer cells; test: Alamar Blue cell proliferation assay, A2780; type: cell-based, human; settings: 4-day incubation
Description: The human A2780 ovarian cancer cells were a kind gift from Dr. T. C. Hamilton (Fox Chase Cancer Centre, Pennsylvania, U.S.A.). The cells were cultured in RPMI 1640 medium supplemented with 2 mM L-Glutamine, 50 μg/ml gentamicin and 10% fetal calf serum.
Potassium Phosphate Buffer 0.1 M (PPB) was made as follows: 2.72 gram KH2PO4 and 13.86 gram K2HPO4 were dissolved in 500 ml milli-Q H2O, the pH was adjusted to pH 7.4 and the volume was brought to 1 liter with milli-Q H2O; the buffer was filter sterilised and stored at room temperature. Resazurin stock solution (PPB-A) was prepared fresh by dissolving 45 mg resazurin in 15 ml PBS. 30 mM potassium ferricyanide (PPB-B) was prepared by dissolving 0.987 gram potassium ferricyanide in 100 ml PPB. 30 mM potassium ferrocyanide (PPB-C) was prepared by dissolving 1.266 gram potassium ferrocyanide in 100 ml PPB.
Mixture of PPB-A, PPB-B and PPB-C was prepared by mixing equal volumes of the respective solutions. Resazurin work solution (herein termed “Alamar Blue” solution) was prepared by diluting said mixture 20×(vol/vol) in PPB and filter sterilising; the Alamar Blue solution could be kept at 4° C. for a maximum of 2 weeks.
(§1) For experiments in 384 wells plates the cells were seeded at a density of 5×10^3 cells/ml in Falcon 384-well culture plates (Life Technologies, Merelbeke, Belgium), black with clear bottom, in 45 μl culture medium. Cells were allowed to adhere to plastic for 24 hr. The tested compound was pre-diluted (1/50 in culture medium) and 5 μl pre-diluted compound was added to the wells. Following 4-day incubation, 10 μl of the Alamar Blue solution was added to each well and the cells were further incubated for 5 hrs (A2780) at 37° C. The fluorescence intensity was measured for each well with a Fluorescence plate reader (Fluorskan, Labsystems, 540 nm excitation and 590 nm emission)
(§2) The antiproliferative activity was calculated as percentage of remaining viable cells in treated versus control (untreated cells) conditions. Within an experiment, the result for each experimental condition is the mean of 3 replicate wells. When appropriate, the experiments were repeated to establish full concentration-response curves. When appropriate, IC50-values (concentration of the drug, needed to reduce cell growth to 50% of the control) were computed using probit analysis for graded data (Finney, D. J., Probit Analyses, 2nd Ed. Chapter 10, Graded Responses, Cambridge University Press, Cambridge 1962). Herein the effects of test compounds are expressed as pIC50 (the negative log value of the IC50-value (M)) (see Table 5A).

[2] = test system: colorectal cancer cell line HCT116; test: Alamar Blue cell proliferation assay, HCT116; type: cell-based; settings: for HCT116 cell proliferation inhibition pIC50: HCT116 cells
Description: as §1, §2
Compounds were also tested according to the above protocol but using other cell lines: colorectal cancer cell line HCT116, non-small cell lung cancer cell line H1299, human prostate cancer cell line DU145.

human U87 glioma tumor = test: In vivo anti tumour effects, U87 glioma xenograft; settings: U87 xenograft in NMRI Nude mice, 20 mg/kg p.o. QD for 5 days; for response vs control in vivo at 20 mg/kg: Mus musculus, U-87 MG, po
Description: Immuno-deficient (athymic) male NMRI Nude (Nu/Nu) mice (20-25 g obtained from Janvier, France) were used for these studies. Initial weight was approximately […]. All animals were maintained under SPF “full barrier” conditions with free access to food and water. Mice were group housed under a 12-h light:dark cycle (lights on at 06:00 h) at a temperature of 19 to 22° C. and 35 to 40% humidity in Techniplast type-3 IVC cages. Mice were fed a standard Laboratory chow. All experiments were carried out in accordance with the European Communities Council Directives (86/609/EEC) and had to be approved by the local ethical committee. For an established tumor xenograft model (tumor volume ˜200 mm^3), mice were randomized according to tumor volumes, with 5 mice per treatment group.
The human U87 glioma tumor cell line was derived from a patient. Cells were cultured at 37° C. in a humidified atmosphere (5% CO2, 95% air), in DMEM medium supplemented with 2 mM L-glutamine, 2.0 mM sodium pyruvate, 25 units/ml penicillin/25 μg/ml streptomycin and 10% fetal bovine serum. Cells were maintained as cell monolayer cultures, being passaged twice weekly at 3×10^6 cells per T175 flask using the following procedure. Briefly cells were washed with PBS (without Mg^2+, Ca^2+), before addition of trypsin-EDTA to the culture flasks. After detachment of cells the trypsin-EDTA was inactivated by addition of complete medium. Cell suspension was then transferred to 50 ml Falcon tube and centrifuged for 3 min at 1200 rpm. Medium was aspirated, with the cells being re-suspended in an appropriate volume of complete medium. The cells were counted in a haemocytometer and their viability was assessed by 0.25% trypan blue exclusion. An appropriate volume of cell suspension was then added to either a new T175 culture flask(s) or roller bottle containing fresh medium. For large scale-up growth of U87 tumor cells, an appropriate number of roller bottles were seeded with 0.5 to 1×10^7 cells 1 week prior to inoculation of mice. The medium was changed twice during this period, with the last change being the day prior to cell injection. Cells were collected as described above, with the exception that after centrifugation, the cells were re-suspended in cold (4° C.) serum-free medium. Mice were injected in the inguinal region with 1×10^7 cells total in a 200 μl volume.
Human U87 glioma cells were injected directly into the inguinal region of the male NMRI Nude mice (1×10^7 cells/200 μl/animal) on day 0 (D0). On day 7-10 (can vary due to tumor take/growth between cell batches) when tumor volume had reached an approximate average of 200 mm^3, mice were randomized according to tumor volume, with 5 mice per treatment group. Mice were then treated once daily (QD) with either vehicle (10% HP-β-CD) or vehicle containing test compound (20 mg/kg) by gavage (p.o.) administered in a volume of 10 ml/kg body weight for 5 days. Specific tumor measurements were taken on day 6 (24 hours post 5th dose) and then again on day 10. Tumor re-growth (after dosing has stopped) was monitored so that the time-to-reach a volume of 2000 mm^3 (TTR2000) can be recorded. This gives extra information on the duration of drug action on the tumor growth. In general, tumor size and body weights were measured twice weekly, with mice monitored daily for clinical signs of toxicity for the duration of the treatment. Clinical signs of toxicity included (but not limited to), persistent anorexia or dehydration, posture, moribund, lethargy, hypothermia and/or laboured respiration (according to the UKCCCR guidelines for welfare of animals in experimental neoplasia (The UKCCCR (UK Coordinating Committee on Cancer Research) guidelines for the welfare of animals in experimental neoplasia (July 1997); and Workman, P. et al. UKCCCR guideline. Br. J. Cancer. 1998, 77: 1-10). […]

[3] = day 6 after start dosing, 20 mg/kg
[4] = day 10 after start dosing, 20 mg/kg

Row | A2780 cell proliferation inhibition pIC50 [1] | HCT116 cell proliferation inhibition pIC50 [2] | Compound | % T/C day 6 (human U87 glioma tumor; [3]) | % T/C day 10 (human U87 glioma tumor; [4]) | % T/C day 6 (human U87 glioma tumor; day 6 after start dosing) | % T/C day 10 (human U87 glioma tumor; day 10 after start dosing) | IC50 ([1]; Homo sapiens, A2780, 96 h, read-out: A2780 cell proliferation inhibition pIC50 (converted)) | IC50 ([2]; Homo sapiens, HCT-116, HCT116 cells, read-out: HCT116 cell proliferation inhibition pIC50 (converted)) | response vs control in vivo at 20 mg/kg (human U87 glioma tumor; 144 h, day 6 after start dosing, read-out: % T/C day 6) | response vs control in vivo at 20 mg/kg (human U87 glioma tumor; 240 h, day 10 after start dosing, read-out: % T/C day 10)
1 | 7.27 | 6.69 | Cc1cc(Nc2ccnc3c2CCC3O)ccc1NCCc1c[nH]c2c(C(C)O)cccc12 (single isomer, unassigned) [Compound 15] | 53% | 88% | – | – | – | – | – | –
2 | 6.52 | 5.53 | Cc1cc(Nc2ccnc3c2CCC3O)ccc1NCCc1c[nH]c2c(CCO)cccc12 (single isomer, unassigned) [Compound 23] | – | – | 72% | 95% | – | – | – | –
3 | – | – | Cc1cc(Nc2ccnc3c2CCC3(C)O)ccc1NCCc1c[nH]c2c(C(C)(C)O)cccc12 (stereo not shown) [Compound 1] | – | – | – | – | 0.115 µM | 0.151 µM | 17% | 8%

Row | Compound | A2780 cell proliferation inhibition pIC50 [1] | HCT116 cell proliferation inhibition pIC50 [2] | % T/C day 6 (human U87 glioma tumor; [3]) | % T/C day 10 (human U87 glioma tumor; [4]) | % T/C day 6 (human U87 glioma tumor; day 6 after start dosing) | % T/C day 10 (human U87 glioma tumor; day 10 after start dosing) | IC50 ([1]; Homo sapiens, A2780, 96 h, read-out: A2780 cell proliferation inhibition pIC50 (converted)) | IC50 ([2]; Homo sapiens, HCT-116, HCT116 cells, read-out: HCT116 cell proliferation inhibition pIC50 (converted)) | response vs control in vivo at 20 mg/kg (human U87 glioma tumor; 144 h, day 6 after start dosing, read-out: % T/C day 6) | response vs control in vivo at 20 mg/kg (human U87 glioma tumor; 240 h, day 10 after start dosing, read-out: % T/C day 10)
4 | COC1CCc2c(Nc3ccc(NCCc4c[nH]c5c(C(C)(C)O)cccc45)c(C)c3)ccnc21 (single isomer, unassigned) [Compound 28] | 6.89 | 7.11 | −280% | −10% | – | – | – | – | – | –

Source: patent US8541442B2, “Indole derivatives as anticancer agents” (Janssen Pharmaceutica N.V., priority 2009, dated 2013)
